Here are results for 17 compounds from patent publication US7572806B2, “PPAR active compounds” (Plexxikon, Inc., priority 2003, dated 2009).

One assay deals with T1, murine PPARα (Mus musculus, UniProt P23204).
T1 sequence (P23204 1-468): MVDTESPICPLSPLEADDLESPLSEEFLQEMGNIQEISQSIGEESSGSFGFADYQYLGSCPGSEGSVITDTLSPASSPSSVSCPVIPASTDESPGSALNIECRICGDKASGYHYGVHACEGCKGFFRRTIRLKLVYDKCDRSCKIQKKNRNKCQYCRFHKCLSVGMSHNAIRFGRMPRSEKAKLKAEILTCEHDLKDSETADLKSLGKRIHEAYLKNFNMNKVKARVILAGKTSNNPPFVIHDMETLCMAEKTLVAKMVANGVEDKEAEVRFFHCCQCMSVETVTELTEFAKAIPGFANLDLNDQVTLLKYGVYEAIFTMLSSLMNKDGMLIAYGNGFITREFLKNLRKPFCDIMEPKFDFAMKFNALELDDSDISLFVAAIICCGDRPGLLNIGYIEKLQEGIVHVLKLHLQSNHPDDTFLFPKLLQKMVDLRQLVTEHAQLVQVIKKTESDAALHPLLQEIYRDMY
Particulars: cited from earlier work.

For assay [1], the target named is T2, PPARδ (Homo sapiens, UniProt Q03181).
T2 sequence (Q03181 1-441): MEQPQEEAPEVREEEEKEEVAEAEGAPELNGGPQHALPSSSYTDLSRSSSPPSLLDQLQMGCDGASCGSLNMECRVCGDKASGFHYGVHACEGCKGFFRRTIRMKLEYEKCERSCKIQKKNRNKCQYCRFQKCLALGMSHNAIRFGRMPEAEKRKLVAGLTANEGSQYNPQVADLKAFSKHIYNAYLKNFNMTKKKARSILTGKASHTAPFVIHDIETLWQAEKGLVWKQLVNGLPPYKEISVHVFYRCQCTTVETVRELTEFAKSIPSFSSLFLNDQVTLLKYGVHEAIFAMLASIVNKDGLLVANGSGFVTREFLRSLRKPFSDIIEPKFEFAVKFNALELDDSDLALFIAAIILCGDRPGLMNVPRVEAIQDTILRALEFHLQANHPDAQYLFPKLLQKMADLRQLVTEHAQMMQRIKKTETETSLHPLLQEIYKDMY
The note with it: cited from earlier work.

Assay [2] concerns the target T2, PPARδ. The assay can be described thus: Alpha screen assay, agonist mode, ligand dependent interaction of PPAR with coactivator peptide. It is filed as biochemical. The method, then:
(§1) The homogenous Alpha screen assay was used in the agonist mode to determine the ligand dependent interaction of the PPARs (α,δ,γ) with the coactivator peptides (SRC or DRIP205). Briefly 15 ul of the reaction mix (50 mM Tris pH 7.5, 50 mM Kcl, 0.05% Tween 20, 1 mM DTT, 0.1% BSA and 10 nM-200 nMPPAR and […] coactivator peptide) was added to the test compound (1 ul compound in DMSO) and preincubated for 1-6 hr. Next, 5 ul of the Alpha screen beads were added. The reactions were incubated for 2 hrs before taking the reading in the Fusion alpha instrument. In the antagonist mode compounds were assayed for inhibition of the co-activator binding signal caused by the control agonists for each receptor.
(§2) The controls agonists used were WY-14643(PPAR(α), farglitazar (PPAR(γ) and bezafibrate (PPAR(δ).
(§3) Using the assay above, compounds from Table 1 were analyzed for activity. The data reported in Table 2 was generated via the alpha screen assay and expressed in μMol/L. The data points from the Fusion alpha instrument were transferred to Assay Explorer® (MDL) to generate a curve and calculate the inflection point of the curve as EC50.

The target of a further assay is T3, PPARα (Homo sapiens, UniProt Q07869).
T3 sequence (Q07869 1-468): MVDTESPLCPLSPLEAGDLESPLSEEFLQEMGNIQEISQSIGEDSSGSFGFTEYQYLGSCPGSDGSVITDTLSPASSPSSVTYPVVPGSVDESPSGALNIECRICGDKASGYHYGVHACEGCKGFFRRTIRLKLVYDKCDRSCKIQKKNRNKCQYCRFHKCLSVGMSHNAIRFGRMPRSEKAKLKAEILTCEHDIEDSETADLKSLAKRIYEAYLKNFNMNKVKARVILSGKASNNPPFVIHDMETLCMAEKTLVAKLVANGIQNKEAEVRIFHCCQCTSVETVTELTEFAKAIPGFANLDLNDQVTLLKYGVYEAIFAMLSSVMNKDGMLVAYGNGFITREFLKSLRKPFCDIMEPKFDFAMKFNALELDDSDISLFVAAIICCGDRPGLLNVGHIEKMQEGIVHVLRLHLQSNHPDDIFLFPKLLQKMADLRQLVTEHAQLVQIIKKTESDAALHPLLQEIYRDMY
The assay is described as above. It is filed as biochemical. How it is done:
as §1, §2, §3

Another assay has as its target T4, PPARγ (Homo sapiens, UniProt P37231).
T4 sequence (P37231 1-505): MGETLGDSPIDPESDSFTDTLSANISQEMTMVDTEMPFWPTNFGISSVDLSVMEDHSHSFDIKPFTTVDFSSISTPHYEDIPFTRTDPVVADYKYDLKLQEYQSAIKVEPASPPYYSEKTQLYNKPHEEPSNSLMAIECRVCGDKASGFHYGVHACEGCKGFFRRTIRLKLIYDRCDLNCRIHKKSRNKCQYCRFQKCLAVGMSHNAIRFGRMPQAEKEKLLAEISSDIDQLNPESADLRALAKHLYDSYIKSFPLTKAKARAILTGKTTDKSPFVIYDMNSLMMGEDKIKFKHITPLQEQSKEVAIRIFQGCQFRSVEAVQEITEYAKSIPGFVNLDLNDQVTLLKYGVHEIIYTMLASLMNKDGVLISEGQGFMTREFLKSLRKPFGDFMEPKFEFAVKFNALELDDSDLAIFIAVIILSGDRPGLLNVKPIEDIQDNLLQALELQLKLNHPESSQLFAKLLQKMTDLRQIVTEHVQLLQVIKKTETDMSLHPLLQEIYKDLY
Described as above. It is filed as biochemical. The note with it: for EC50: Alpha screen. The method, then:
as §1, §2, §3

A further assay concerns PPARs (α,δ,γ). The assay can be described thus: Alpha screen assay, pan-activity across the PPARs. It is filed as biochemical, human. The note with it: PPARα, PPARδ and PPARγ. How it is done: as §1, §2, §3
The conditions of assay [3]: large prospective trial; cited from earlier work.
Setting [4] is: agonist mode, read-out: PPARδ Agonist.
Setting [5] is: agonist mode, read-out: PPARα agonist.
Setting [6] is: agonist mode, read-out: PPARγ Agonist.

SMILES strings stand for the structures. Read-outs that look alike come from different tables or passages of the source. Bounds are passed on as bounds.

With `CCCc1c(OCCCOc2ccc(OCC(=O)O)cc2)ccc(C(C)=O)c1O` [L-165041], the “activity on murine PPARα” value at murine PPARα was “inactive”. Moreover, at PPARδ [1], the “agonist selectivity for PPARδ over PPARγ” value was “approximately 30 fold”.
Take `CCc1ccc2c(c1)c(CCC(=O)O)cn2S(=O)(=O)c1ccccc1` [compound 6, 3-(1-Benzenesulfonyl-5-ethyl-1H-indol-3-yl)-propionic acid]: the EC50 at PPARδ [2] (setting [4]) is greater than 10 µM; on PPARδ [2] (read-out: activity on PPARδ) it was no less than 200 µM; at PPARα (setting [5]), greater than 10 µM; at PPARα (read-out: activity on PPARα), no less than 200 µM; on PPARγ (setting [6]), no more than 10 µM; on PPARγ (read-out: activity on PPARγ), roughly 8 µM. Further, the selectivity result at PPARγ (PPARγ versus PPARα and δ) is “selective for PPARγ”.
Take `COc1ccc2c(c1)c(CCC(=O)O)cn2S(=O)(=O)c1ccccc1` [compound 29, 3-(1-Benzenesulfonyl-5-methoxy-1H-indol-3-yl)-propionic acid]: the EC50 at PPARδ [2] (setting [4]), at PPARα (setting [5]) and at PPARγ (setting [6]) was no more than 10 µM each time. For the same compound, in the assay with PPARs (α,δ,γ), the pan-activity result is “low micromolar or even sub-micromolar”.
In the case of `O=C(O)CCc1nn(S(=O)(=O)c2ccccc2)c2ccccc12` [compound 39, 3-(1-Benzenesulfonyl-1H-indazol-3-yl)-propionic acid], the EC50 on PPARδ [2] (setting [4]), at PPARα (setting [5]) and at PPARγ (setting [6]) was greater than 10 µM throughout.
For the compound `CCCCOc1ccc(S(=O)(=O)n2cc(CCC(=O)O)c3cc(OC)ccc32)cc1` [compound 43, 3-[1-(4-Butoxy-benzenesulfonyl)-5-methoxy-1H-indol-3-yl]-propionic acid], the EC50 on PPARδ [2] (setting [4]), at PPARα (setting [5]) and on PPARγ (setting [6]) was no more than 10 µM in each case. The pan-activity entry with PPARs (α,δ,γ) is reported as “low micromolar or even sub-micromolar”.
With `COc1ccc2c(c1)c(CCC(=O)O)cn2S(=O)(=O)c1ccc(Cl)cc1` [compound 49, 3-[1-(4-Chloro-benzenesulfonyl)-5-methoxy-1H-indol-3-yl]-propionic acid], the EC50 on PPARδ [2] (setting [4]), on PPARα (setting [5]) and at PPARγ (setting [6]) was no more than 10 µM in each case.
With `COc1ccc2c(c1)c(CCC(=O)O)cn2S(=O)(=O)c1ccc(Cl)c(Cl)c1` [compound 53, 3-[1-(3,4-Dichloro-benzenesulfonyl)-5-methoxy-1H-indol-3-yl]-propionic acid], the EC50 at PPARδ [2] (setting [4]), at PPARα (setting [5]) and at PPARγ (setting [6]) was no more than 10 µM in each case. Moreover, in the assay with PPARs (α,δ,γ), the pan-activity result was “low micromolar or even sub-micromolar”.
For the compound `COc1ccc2c(c1)c(CCC(=O)O)cn2Cc1ccccc1` [compound 71, 3-(1-Benzyl-5-methoxy-1H-indol-3-yl)-propionic acid], the figures for the EC50 at PPARδ [2] (setting [4]), at PPARα (setting [5]) and on PPARγ (setting [6]) were greater than 10 µM, no more than 10 µM and greater than 10 µM, respectively.
On to `COc1ccc2c(c1)c(CCC(=O)O)cn2C(=S)Nc1ccccc1` [compound 75, 3-(5-Methoxy-1-phenylthiocarbamoyl-1H-indol-3-yl)-propionic acid], for which the EC50 on PPARδ [2] (setting [4]), on PPARα (setting [5]) and at PPARγ (setting [6]) was greater than 10 µM throughout.
As to `CCCCc1ccc(S(=O)(=O)n2cc(CCC(=O)O)c3cc(OC)ccc32)cc1` [compound 77, 3-[1-(4-Butyl-benzenesulfonyl)-5-methoxy-1H-indol-3-yl]-propionic acid], the EC50 at PPARδ [2] (setting [4]), on PPARα (setting [5]) and at PPARγ (setting [6]) was no more than 10 µM in each case.
In the case of `COc1ccc2c(c1)c(CCC(=O)O)cn2S(=O)(=O)c1cccc(OC(F)(F)F)c1` [compound 79, 3-[5-Methoxy-1-(3-trifluoromethoxy-benzenesulfonyl)-1H-indol-3-yl]-propionic acid], the EC50 at PPARδ [2] (setting [4]), on PPARα (setting [5]) and at PPARγ (setting [6]) was no more than 10 µM each time.
On to `COc1ccc2c(c1)c(CCC(=O)O)cn2C(=O)c1ccccc1` [compound 81, 3-(1-Benzoyl-5-methoxy-1H-indol-3-yl)-propionic acid], for which the EC50 is greater than 10 µM at PPARδ [2] (setting [4]), no more than 10 µM at PPARα (setting [5]) and greater than 10 µM at PPARγ (setting [6]).
Turning to `CCOc1ccc2c(c1)c(CCC(=O)O)cn2S(=O)(=O)c1ccccc1` [compound 82, 3-(1-Benzenesulfonyl-5-ethoxy-1H-indol-3-yl)-propionic acid], the EC50 at PPARδ [2] (setting [4]), on PPARα (setting [5]) and at PPARγ (setting [6]) was no more than 10 µM throughout.
For `COc1ccc2c(c1)c(CCC(=O)O)cn2C(=O)Nc1ccccc1` [compound 85, 3-(5-Methoxy-1-phenylcarbamoyl-1H-indol-3-yl)-propionic acid], the EC50 on PPARδ [2] (setting [4]), on PPARα (setting [5]) and at PPARγ (setting [6]) was greater than 10 µM each time.
Turning to `O=C(O)CCc1cn(S(=O)(=O)c2ccccc2)c2ccc(-c3ccsc3)cc12` [compound 92, 3-(Benzenesulfonyl-5-thiophen-3-yl-1H-indol-3-yl)-propionic acid], the EC50 on PPARδ [2] (setting [4]) is greater than 10 µM; at PPARα (setting [5]), no more than 10 µM; at PPARγ (setting [6]), no more than 10 µM.
In the case of `O=C(O)CCc1cn(S(=O)(=O)c2ccccc2)c2ccccc12` [compound 97, 3-(1-Benzenesulfonyl-1H-indol-3-yl)-propionic acid], the EC50 at PPARδ [2] (setting [4]), on PPARα (setting [5]) and on PPARγ (setting [6]) was greater than 10 µM each time.
Turning to `Cc1ccc(C)c(OCCCC(C)(C)C(=O)O)c1` [gemfibrozil], the “reduction in cardiovascular events or death” value in assay [3] is reported as 22%.
